Laboratory results from ChEMBL document CHEMBL1201862, “PubChem BioAssay data set” (2004).
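Grown in 96-well plates, cells were treated for 48 hours with each compound at five concentrations. Insufficient inhibition: endpoint recorded as highest concentration tested. GI50 marks 50% less growth.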 Active and inactive are the calls of the source. No stated cut-off is given here; in the data, active = GI50 up to about 1.1 µM and inactive = higher.

What was measured:
Assay in all cases: growth of human tumour cells (NCI), 48 h
MDA-N = test system: MDA-N
MCF7 = test system: MCF7
PC-3 = test system: PC-3
T47D = test system: T47D
SF-539 = test system: SF-539
NCI-H460 = test system: NCI-H460
M14 = test system: M14
HCC 2998 = test system: HCC 2998
HCT-116 = test system: HCT-116
SK-MEL-2 = test system: SK-MEL-2
SF-268 = test system: SF-268
SNB-75 = test system: SNB-75
HT-29 = test system: HT-29
Hs-578T = test system: Hs-578T
CCRF-CEM = test system: CCRF-CEM
NCI-H226 = test system: NCI-H226
Malme-3M = test system: Malme-3M
A498 = test system: A498
IGROV-1 = test system: IGROV-1
NCI-H522 = test system: NCI-H522
KM12 = test system: KM12
SN12C = test system: SN12C
LOX IMVI = test system: LOX IMVI
OVCAR-3 = test system: OVCAR-3
NCI-H23 = test system: NCI-H23
K562 = test system: K562
BT-549 = test system: BT-549
ACHN = test system: ACHN
A549 = test system: A549
DU-145 = test system: DU-145
U-251 = test system: U-251
OVCAR-4 = test system: OVCAR-4
SK-MEL-28 = test system: SK-MEL-28
NCI/ADR-RES = test system: NCI/ADR-RES
COLO 205 = test system: COLO 205
HL-60 = test system: HL-60
TK-10 = test system: TK-10
UACC-257 = test system: UACC-257
OVCAR-8 = test system: OVCAR-8
EKVX = test system: EKVX
UO-31 = test system: UO-31
RXF 393 = test system: RXF 393
786-0 = test system: 786-0
OVCAR-5 = test system: OVCAR-5
UACC-62 = test system: UACC-62
SNB-19 = test system: SNB-19
HCT-15 = test system: HCT-15
MDA-MB-435 = test system: MDA-MB-435
SF-295 = test system: SF-295
HOP-62 = test system: HOP-62
SK-OV-3 = test system: SK-OV-3
CAKI-1 = test system: CAKI-1
SK-MEL-5 = test system: SK-MEL-5
MDA-MB-231 = test system: MDA-MB-231
SW-620 = test system: SW-620
RPMI-8226 = test system: RPMI-8226
MOLT-4 = test system: MOLT-4
HOP-92 = test system: HOP-92

Measured: GI50

N=C(N)NC(=N)Nc1ccccc1.Sc1nc2ccccc2s1
> 100 µM: HCT-15
inactive: MDA-N > 100 µM | MCF7 > 100 µM | PC-3 > 100 µM | T47D 24.2 µM | SF-539 > 100 µM | NCI-H460 > 100 µM | M14 > 100 µM | HCC 2998 > 100 µM | HCT-116 > 100 µM | SK-MEL-2 > 100 µM | SF-268 > 100 µM | SNB-75 > 100 µM | HT-29 > 100 µM | Hs-578T > 100 µM | CCRF-CEM > 100 µM | NCI-H226 > 100 µM | Malme-3M > 100 µM | A498 > 100 µM | IGROV-1 70.5 µM | NCI-H522 53.8 µM | KM12 > 100 µM | SN12C > 100 µM | LOX IMVI > 100 µM | NCI-H23 > 100 µM | K562 > 100 µM | BT-549 > 100 µM | ACHN > 100 µM | A549 > 100 µM | DU-145 > 100 µM | U-251 > 100 µM | OVCAR-4 > 100 µM | SK-MEL-28 > 100 µM | NCI/ADR-RES > 100 µM | COLO 205 > 100 µM | HL-60 > 100 µM | TK-10 > 100 µM | UACC-257 > 100 µM | OVCAR-8 > 100 µM | EKVX > 100 µM | UO-31 > 100 µM | RXF 393 > 100 µM | 786-0 > 100 µM | OVCAR-5 > 100 µM | UACC-62 > 100 µM | SNB-19 > 100 µM | MDA-MB-435 > 100 µM | SF-295 > 100 µM | HOP-62 > 100 µM | SK-OV-3 > 100 µM | CAKI-1 > 100 µM | SK-MEL-5 > 100 µM | MDA-MB-231 > 100 µM | SW-620 > 100 µM
active: OVCAR-3 0.532 µM

CC1(c2ccc(Cl)s2)CC(c2ccc(Cl)s2)=C(C#N)C(=C(C#N)C#N)N1 (configuration not stated)
inactive: MDA-N 22.4 µM | MCF7 17.6 µM | PC-3 17.6 µM | T47D 18.8 µM | SF-539 26.3 µM | NCI-H460 29 µM | M14 19.4 µM | HCC 2998 18.9 µM | HCT-116 17.3 µM | RPMI-8226 32 µM | SK-MEL-2 18.6 µM | SF-268 20.7 µM | MOLT-4 28.1 µM | SNB-75 22.2 µM | HT-29 19.2 µM | Hs-578T 29.5 µM | CCRF-CEM 16 µM | NCI-H226 26.9 µM | Malme-3M 22.8 µM | A498 19.4 µM | IGROV-1 19.9 µM | KM12 18 µM | SN12C 21 µM | LOX IMVI 22.3 µM | OVCAR-3 15 µM | NCI-H23 21.2 µM | K562 29.6 µM | BT-549 20.9 µM | ACHN 17.5 µM | HOP-92 15.4 µM | A549 22.4 µM | DU-145 16.9 µM | U-251 17.3 µM | OVCAR-4 16.5 µM | SK-MEL-28 19.4 µM | NCI/ADR-RES 19.3 µM | COLO 205 19.9 µM | HL-60 16.7 µM | TK-10 22.4 µM | UACC-257 21.9 µM | OVCAR-8 20.8 µM | EKVX 18.2 µM | UO-31 18.7 µM | RXF 393 16.9 µM | 786-0 19.8 µM | OVCAR-5 19.4 µM | UACC-62 15.8 µM | SNB-19 20.8 µM | MDA-MB-435 18.4 µM | SF-295 15 µM | HOP-62 18.8 µM | SK-OV-3 16.9 µM | CAKI-1 19.1 µM | SK-MEL-5 15.2 µM | MDA-MB-231 23.2 µM | SW-620 13.9 µM
17.4 µM: HCT-15
